A short description of data set [1]: Pharmacokinetic comparison of forms by dosing vehicle.
The nature of data set [2]: Aqueous solubility in water at indicated pH. The note with it: water at adjusted pH, 26 °C, thermodynamic from solid.

For orientation: solubility means the concentration that dissolves in the medium under given conditions.

Each structure is given as a SMILES string. Converted amounts (≈) assume the structure as drawn.

On to `CC[C@H]1OC(=O)[C@@](C)(F)C(=O)[C@H](C)[C@@H](O[C@@H]2O[C@H](C)C[C@H](N(C)C)[C@H]2O)[C@](C)(OC)C[C@@H](C)C(=O)[C@H](C)[C@H]2N(CCCCn3cc(-c4cccc(N)c4)nn3)C(=O)O[C@]12C` [Form II, solithromycin], for which the “difference in measured pharmacokinetic parameters, including Cmax, Tmax, and AUC, among Form I and Form II” value in data set [1] (dosed in a vehicle in which the compound is present as a solid) is “no statistical difference”; in data set [1] (dosed in a vehicle in which the compound is well solubilized), “no observed difference”. Besides, the solubility at 6 h in data set [2] (pH 1.2, simulated gastric fluid) was 3640 µg/mL (≈ 4310 µM); in data set [2] (pH 4, aqueous buffer), 361 µg/mL (≈ 427 µM); in data set [2] (pH 7.4, aqueous buffer) it was 305 µg/mL (≈ 361 µM); in data set [2] (pH 9.2, aqueous buffer), 331 µg/mL (≈ 392 µM).
